IC50 data for 16 compounds are collected here from patent publication US10829478B2, “5-[3-[piperazin-1-yl]-3-oxo-propyl]-imidazolidine-2,4-dione derivatives as ADAMTS 4 and 5 inhibitors for treating e.g. osteoarthritis” (Galapagos NV, priority 2016, dated 2020).

Assay [1] has as its target T1, human ADAMTS4 (Homo sapiens (Human), UniProt O75173). The assay can be described thus: hADAMTS-4 TBIS-1 cleavage assay, Protocol 1. The following applies: 60 min at room temperature, read-out: ADAMTS4 potency IC50. The class given is biochemical.
Description: (§2) The reaction is initiated by adding to the assay plate TBIS-1 (10 μL, 4.5 μM, Anaspec) in the same buffer.
Finally, the fluorescence is read on the Envision (Perkin Elmer) after an incubation of 60 min at room temperature (Excitation 485 nm, emission 535).
The next assay deals with human ADAMTS6 (Homo sapiens (Human), UniProt Q9UKP5). The assay can be described thus: hADAMTS-6 fluorescent based protease assay (520 MMP FRET substrate XII). The following applies: 37° C. for 2 h; read-out: hADAMTS-6 potency IC50. The class given is biochemical. In short, it runs like this:
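ADAMTS6 (0.73 nM final) in 25 mM Tris pH 8.0, 0.05% CHAPS, 2.5 mM CaCl2 with compound dilution series (top 20 μM, 1/5 steps). Reaction started with 520 MMP FRET Substrate XII, incubated 2 h at 37 °C. Substrate cleavage read by fluorescence ex485/em530; IC50 determined.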

The next assay has as its target human TACE (Homo sapiens (Human), UniProt P78536). The assay can be described thus: biochemical.
Assay [2] addresses T2, human ADAMTS-5 (Homo sapiens (Human), UniProt Q9UNA0). The assay can be described thus: hADAMTS-5 TBIS-1 cleavage assay, Protocol 2. The class given is biochemical. The following applies: 45 min at 37° C., read-out: ADAMTS5 potency IC50.
In the next assay the target is rnADAMTS-5 (1-564-6H) (Rattus norvegicus (Rat), UniProt Q6TY19). The assay can be described thus: Rat ADAMTS-5 TBIS-1 cleavage assay. It is filed as biochemical. The following applies: 120 min at 37° C.; read-out: Rat ADAMTS-5 potency IC50.
rnADAMTS-5 (1-564-6H), sequence (Q6TY19 entry or part of it): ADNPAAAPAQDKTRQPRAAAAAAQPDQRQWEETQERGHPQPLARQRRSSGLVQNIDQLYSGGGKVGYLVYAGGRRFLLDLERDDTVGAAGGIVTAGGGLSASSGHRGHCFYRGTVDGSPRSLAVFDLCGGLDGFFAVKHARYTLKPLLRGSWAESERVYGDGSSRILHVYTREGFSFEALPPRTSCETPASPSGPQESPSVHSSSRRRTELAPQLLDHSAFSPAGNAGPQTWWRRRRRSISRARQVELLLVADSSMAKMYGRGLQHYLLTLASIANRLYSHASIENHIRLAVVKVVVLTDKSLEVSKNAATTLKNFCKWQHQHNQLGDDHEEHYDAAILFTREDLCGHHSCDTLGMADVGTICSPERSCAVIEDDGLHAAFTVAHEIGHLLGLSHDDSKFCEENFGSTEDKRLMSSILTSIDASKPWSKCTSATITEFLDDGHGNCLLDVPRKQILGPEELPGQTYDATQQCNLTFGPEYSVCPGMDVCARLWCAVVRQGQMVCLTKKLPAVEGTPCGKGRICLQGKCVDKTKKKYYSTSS
Assay [3] concerns the target T1, human ADAMTS4. The assay can be described thus: hADAMTS-4 TBIS-1 cleavage assay, Protocol 2. The class given is biochemical.
The target in assay [4] is T3, human MMP13 (Homo sapiens (Human), UniProt P45452). The assay can be described thus: hMMP13 assay, Protocol 1 (390 MMP FRET Substrate I, Chemicon enzyme). It is filed as biochemical. The following applies: Protocol 1, human MMP13 (Chemicon), read-out: hMMP-13 potency IC50. Here is the method: (§1) Human MMP13 is preactivated by incubated the enzyme in the same buffer complemented with 1 mM freshly prepared p-Aminophenylmercuric acetate (AMPA) for 1 h at 37° C.

Assay [5] concerns the target T2, human ADAMTS-5. The assay can be described thus: hADAMTS-5 TBIS-1 cleavage assay, Protocol 3. It is filed as biochemical. The following applies: 90 min at 37° C., read-out: hADAMTS-5 potency IC50.
Description: as §2
Finally, the fluorescence is read on the Envision (Perkin Elmer) after an incubation of 90 min at 37° C. (Excitation 485 nm, emission 530).
The target in the next assay is human MMP14 (Homo sapiens (Human), UniProt P50281). The assay can be described thus: hMMP14 assay (390 MMP FRET Substrate I). The following applies: human MMP14 (Biomol), read-out: hMMP-14 potency IC50. The class given is biochemical.
For assay [6], the target named is T3, human MMP13. The assay can be described thus: hMMP13 assay, Protocol 2 (390 MMP FRET Substrate I, Enzo enzyme). The class given is biochemical. The following applies: Protocol 2, human MMP13 (Enzo Life Sciences), read-out: hMMP-13 potency IC50. Here is the method:
as §1

Where [7] appears, read: Protocol 2, 180 min at 37° C., read-out: ADAMTS4 potency IC50.

T2 sequence (Q9UNA0 262-930): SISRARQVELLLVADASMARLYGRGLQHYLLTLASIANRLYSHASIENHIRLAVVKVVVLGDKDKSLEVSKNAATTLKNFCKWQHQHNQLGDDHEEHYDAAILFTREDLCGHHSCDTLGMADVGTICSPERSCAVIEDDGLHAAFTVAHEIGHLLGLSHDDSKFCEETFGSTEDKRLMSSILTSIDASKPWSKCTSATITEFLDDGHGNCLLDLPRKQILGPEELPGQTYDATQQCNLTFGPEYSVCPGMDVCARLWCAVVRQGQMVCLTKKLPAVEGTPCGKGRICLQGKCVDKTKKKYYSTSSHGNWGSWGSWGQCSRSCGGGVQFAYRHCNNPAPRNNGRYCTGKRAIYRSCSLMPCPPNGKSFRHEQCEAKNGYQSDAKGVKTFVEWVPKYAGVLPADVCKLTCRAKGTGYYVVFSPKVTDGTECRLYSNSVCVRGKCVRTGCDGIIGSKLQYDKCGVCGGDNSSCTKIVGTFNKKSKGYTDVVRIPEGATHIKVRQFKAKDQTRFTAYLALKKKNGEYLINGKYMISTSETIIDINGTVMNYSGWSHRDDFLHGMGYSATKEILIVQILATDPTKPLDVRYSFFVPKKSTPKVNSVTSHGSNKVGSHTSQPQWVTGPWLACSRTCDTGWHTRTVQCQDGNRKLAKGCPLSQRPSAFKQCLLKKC
T1 sequence (O75173 213-837): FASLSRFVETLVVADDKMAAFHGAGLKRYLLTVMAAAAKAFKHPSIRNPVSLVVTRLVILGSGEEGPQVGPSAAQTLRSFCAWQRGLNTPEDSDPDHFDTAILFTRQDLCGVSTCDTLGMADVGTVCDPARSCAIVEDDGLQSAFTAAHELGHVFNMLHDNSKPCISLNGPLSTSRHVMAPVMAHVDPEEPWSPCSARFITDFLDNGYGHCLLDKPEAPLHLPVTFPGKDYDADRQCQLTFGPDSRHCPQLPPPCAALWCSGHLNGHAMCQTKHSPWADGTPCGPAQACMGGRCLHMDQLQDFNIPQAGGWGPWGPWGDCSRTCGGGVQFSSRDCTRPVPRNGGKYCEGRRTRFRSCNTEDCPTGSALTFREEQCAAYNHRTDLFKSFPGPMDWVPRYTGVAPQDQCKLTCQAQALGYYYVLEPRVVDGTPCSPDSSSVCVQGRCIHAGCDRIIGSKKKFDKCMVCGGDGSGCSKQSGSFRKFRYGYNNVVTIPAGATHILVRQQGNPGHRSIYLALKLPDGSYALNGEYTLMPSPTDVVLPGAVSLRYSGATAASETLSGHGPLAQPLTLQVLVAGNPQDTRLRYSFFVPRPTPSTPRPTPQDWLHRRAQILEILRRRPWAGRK
human TACE, sequence (P78536 215-671): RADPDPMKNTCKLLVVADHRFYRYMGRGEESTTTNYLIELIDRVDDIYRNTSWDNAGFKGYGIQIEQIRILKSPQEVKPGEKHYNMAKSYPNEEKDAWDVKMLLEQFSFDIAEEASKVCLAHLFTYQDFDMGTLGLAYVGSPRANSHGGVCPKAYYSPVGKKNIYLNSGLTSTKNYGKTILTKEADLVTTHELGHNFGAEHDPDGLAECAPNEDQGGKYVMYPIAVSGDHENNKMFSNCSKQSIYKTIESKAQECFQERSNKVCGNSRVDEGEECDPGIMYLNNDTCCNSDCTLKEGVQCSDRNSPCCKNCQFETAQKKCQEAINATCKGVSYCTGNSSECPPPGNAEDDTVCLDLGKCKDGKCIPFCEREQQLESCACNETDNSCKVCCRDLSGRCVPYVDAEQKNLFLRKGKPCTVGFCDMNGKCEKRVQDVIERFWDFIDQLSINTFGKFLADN
human ADAMTS6, sequence (Q9UKP5 other isoform, or with tags, fused parts or gaps): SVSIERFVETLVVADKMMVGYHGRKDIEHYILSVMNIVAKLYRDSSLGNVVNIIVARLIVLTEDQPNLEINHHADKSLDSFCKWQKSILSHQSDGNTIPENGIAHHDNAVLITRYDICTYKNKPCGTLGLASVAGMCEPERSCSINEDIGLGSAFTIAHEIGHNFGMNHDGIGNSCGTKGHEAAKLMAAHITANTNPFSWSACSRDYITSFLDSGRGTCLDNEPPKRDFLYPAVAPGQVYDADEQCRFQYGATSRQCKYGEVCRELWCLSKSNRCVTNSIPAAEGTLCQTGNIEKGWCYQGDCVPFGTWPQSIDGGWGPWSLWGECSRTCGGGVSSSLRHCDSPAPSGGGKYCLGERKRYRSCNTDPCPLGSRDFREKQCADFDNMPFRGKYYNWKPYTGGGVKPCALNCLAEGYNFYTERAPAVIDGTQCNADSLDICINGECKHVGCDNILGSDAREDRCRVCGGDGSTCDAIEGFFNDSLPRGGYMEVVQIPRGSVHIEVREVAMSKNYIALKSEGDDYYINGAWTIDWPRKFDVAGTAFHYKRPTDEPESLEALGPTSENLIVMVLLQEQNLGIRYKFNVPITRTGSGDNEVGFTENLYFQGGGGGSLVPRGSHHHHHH
Description for human MMP14: The basis for the assay is the cleavage of the substrate 390 MMP FRET Substrate I (Anaspec Cat #AS-27076) by human MMP14 (Biomol, Cat #SE-259).
The reaction is initiated by adding to the assay plate 390 MMP FRET Substrate I (10 μL, 2.5 μM) in the same buffer.
Finally, the fluorescence is read on the Envision (Perkin Elmer) after an incubation of 60 min at room temperature (Excitation 485 nm, Emission 530).
Description for human TACE: Finally, the fluorescence is read on the Envision (Perkin Elmer) after an incubation of 75 min at room temperature (Excitation 485 nm, Emission 530).

Turning to `COc1cccc(N2CCN(C(=O)CCC3(C)NC(=O)NC3=O)CC2)c1` (stereo not drawn) [Cpd 1, 5-[3-[4-(3-methoxyphenyl)piperazin-1-yl]-3-oxo-propyl]-5-methyl-imidazolidine-2,4-dione], the IC50 on human ADAMTS4 [1], at human ADAMTS6, at human TACE and on human ADAMTS-5 [2] was above 100 nM each time.

As to `COc1cccc(N2CCN(C(=O)CCC3(C4CC4)NC(=O)NC3=O)CC2)c1` (stereo not drawn) [Cpd 2, 5-cyclopropyl-5-[3-[4-(3-methoxyphenyl)piperazin-1-yl]-3-oxo-propyl]imidazolidine-2,4-dione], the IC50 was 25 to 50 nM on human ADAMTS4 [1]; above 100 nM on rnADAMTS-5 (1-564-6H); above 100 nM on human ADAMTS6; above 100 nM against human TACE; above 100 nM at human ADAMTS-5 [2].

Take `CC1(CCC(=O)N2CCN(c3ccc(OC(F)(F)F)cc3)CC2)NC(=O)NC1=O` (stereo not drawn) [Cpd 3, 5-methyl-5-[3-oxo-3-[4-[4-(trifluoromethoxy)phenyl]piperazin-1-yl]propyl]imidazolidine-2,4-dione]: the IC50 at human ADAMTS4 [3] (setting [7]), on human MMP13 [4], on human ADAMTS6, on human TACE and on human ADAMTS-5 [2] was above 100 nM each time.

On to `CC1(CCC(=O)N2CCN(c3ccccc3OC(F)(F)F)CC2)NC(=O)NC1=O` (stereo not drawn) [Cpd 4, 5-methyl-5-[3-oxo-3-[4-[2-(trifluoromethoxy)phenyl]piperazin-1-yl]propyl]imidazolidine-2,4-dione], for which the IC50 on human ADAMTS-5 [5], on human ADAMTS6 and at human ADAMTS-5 [2] was above 100 nM throughout.

In the case of `COc1cccc(N2CCN(C(=O)CCC3(c4cccnc4)NC(=O)NC3=O)CC2)c1` (stereo not drawn) [Cpd 6, 5-[3-[4-(3-methoxyphenyl)piperazin-1-yl]-3-oxo-propyl]-5-(3-pyridyl)imidazolidine-2,4-dione], the IC50 at rnADAMTS-5 (1-564-6H), on human MMP13 [4], on human ADAMTS6, at human TACE and on human ADAMTS-5 [2] was above 100 nM throughout.

In the case of `COc1ccccc1N1CCN(C(=O)CCC2(C)NC(=O)NC2=O)CC1` (stereo not drawn) [Cpd 7, 5-[3-[4-(2-methoxyphenyl)piperazin-1-yl]-3-oxo-propyl]-5-methyl-imidazolidine-2,4-dione], the IC50 at human ADAMTS-5 [5], at human ADAMTS6 and on human ADAMTS-5 [2] was above 100 nM throughout.

As to `COc1cccc(N2CCN(C(=O)CCC3(c4ccccn4)NC(=O)NC3=O)CC2)c1` (stereo not drawn) [Cpd 8, 5-[3-[4-(3-methoxyphenyl)piperazin-1-yl]-3-oxo-propyl]-5-(2-pyridyl)imidazolidine-2,4-dione], the IC50 was 50 to 100 nM against human ADAMTS4 [3]; above 100 nM at rnADAMTS-5 (1-564-6H); above 100 nM on human MMP13 [4]; above 100 nM at human ADAMTS6; above 100 nM against human TACE; above 100 nM on human ADAMTS-5 [2].

`COc1cc(N2CCN(C(=O)CCC3(C)NC(=O)NC3=O)CC2)ccc1F` (stereo not drawn) [Cpd 9, 5-[3-[4-(4-fluoro-3-methoxy-phenyl)piperazin-1-yl]-3-oxo-propyl]-5-methyl-imidazolidine-2,4-dione]: the IC50 was above 100 nM on human ADAMTS-5 [5]; above 100 nM at rnADAMTS-5 (1-564-6H); above 100 nM at human MMP13 [4]; 50 to 100 nM at human ADAMTS6; above 100 nM at human TACE; above 100 nM on human ADAMTS-5 [2].

`COc1cc(N2CCN(C(=O)CCC3(C)NC(=O)NC3=O)CC2)ccc1Cl` (stereo not drawn) [Cpd 10, 5-[3-[4-(4-chloro-3-methoxy-phenyl)piperazin-1-yl]-3-oxo-propyl]-5-methyl-imidazolidine-2,4-dione]: the IC50 on human ADAMTS-5 [5] is above 100 nM; at human ADAMTS4 [3] (setting [7]), above 100 nM; on rnADAMTS-5 (1-564-6H) it was above 100 nM; at human MMP13 [4], above 100 nM; at human ADAMTS6, 25 to 50 nM; against human TACE, above 100 nM. Also, the IC50 at human ADAMTS-5 [2] is above 100 nM.

As for `COc1cc(OC)cc(N2CCN(C(=O)CCC3(C)NC(=O)NC3=O)CC2)c1` (stereo not drawn) [Cpd 11, 5-[3-[4-(3,5-dimethoxyphenyl)piperazin-1-yl]-3-oxo-propyl]-5-methyl-imidazolidine-2,4-dione], the IC50 at human ADAMTS4 [3] (setting [7]), on rnADAMTS-5 (1-564-6H), at human MMP13 [4], at human ADAMTS6, on human TACE and on human ADAMTS-5 [2] was above 100 nM in each case.

For the compound `COc1cc(F)cc(N2CCN(C(=O)CCC3(C)NC(=O)NC3=O)CC2)c1` (stereo not drawn) [Cpd 12, 5-[3-[4-(3-fluoro-5-methoxy-phenyl)piperazin-1-yl]-3-oxo-propyl]-5-methyl-imidazolidine-2,4-dione], the IC50 on rnADAMTS-5 (1-564-6H), on human MMP13 [4], at human ADAMTS6, at human TACE and at human ADAMTS-5 [2] was above 100 nM throughout.

Regarding `COc1cc(Cl)cc(N2CCN(C(=O)CCC3(C)NC(=O)NC3=O)CC2)c1` (stereo not drawn) [Cpd 13, 5-[3-[4-(3-chloro-5-methoxy-phenyl)piperazin-1-yl]-3-oxo-propyl]-5-methyl-imidazolidine-2,4-dione], the IC50 on rnADAMTS-5 (1-564-6H) was above 100 nM; at human MMP13 [4] it was above 100 nM; at human ADAMTS6, 25 to 50 nM; on human TACE it was above 100 nM; at human ADAMTS-5 [2], above 100 nM.

As to `COc1cc(N2CCN(C(=O)CCC3(C)NC(=O)NC3=O)CC2)cc(F)c1F` (stereo not drawn) [Cpd 14, 5-[3-[4-(3,4-difluoro-5-methoxy-phenyl)piperazin-1-yl]-3-oxo-propyl]-5-methyl-imidazolidine-2,4-dione], the IC50 on human ADAMTS-5 [5] is above 100 nM; on human ADAMTS4 [3] (setting [7]), above 100 nM; at rnADAMTS-5 (1-564-6H), above 100 nM; at human MMP13 [4] it was above 100 nM; at human ADAMTS6, 25 to 50 nM; at human TACE, above 100 nM. On human ADAMTS-5 [2], the IC50 is above 100 nM.

Regarding `COc1cc(F)cc(N2CCN(C(=O)CCC3(C4CC4)NC(=O)NC3=O)CC2)c1` (stereo not drawn) [Cpd 15, 5-cyclopropyl-5-[3-[4-(3-fluoro-5-methoxy-phenyl)piperazin-1-yl]-3-oxo-propyl]imidazolidine-2,4-dione], the IC50 on human ADAMTS-5 [5] was 50 to 100 nM; against human ADAMTS4 [3], 50 to 100 nM; on rnADAMTS-5 (1-564-6H), 50 to 100 nM; at human MMP13 [4], above 100 nM; at human ADAMTS6 it was above 100 nM; on human TACE, above 100 nM. Further, the IC50 at human ADAMTS-5 [2] was in the range of 50 to 100 nM.

For the compound `COc1cc(N2CCN(C(=O)CCC3(C4CC4)NC(=O)NC3=O)CC2)ccc1F` (stereo not drawn) [Cpd 17, 5-cyclopropyl-5-[3-[4-(4-fluoro-3-methoxy-phenyl)piperazin-1-yl]-3-oxo-propyl]imidazolidine-2,4-dione], the IC50 on human ADAMTS-5 [5], at human ADAMTS4 [3] (setting [7]), on rnADAMTS-5 (1-564-6H), on human MMP13 [4], at human ADAMTS6 and against human TACE was above 100 nM each time. Also, the IC50 on human ADAMTS-5 [2] was above 100 nM.

For `COc1cc(N2CCN(C(=O)CCC3(C4CC4)NC(=O)NC3=O)CC2)cc(F)c1F` (stereo not drawn) [Cpd 18, 5-cyclopropyl-5-[3-[4-(3,4-difluoro-5-methoxy-phenyl)piperazin-1-yl]-3-oxo-propyl]imidazolidine-2,4-dione], the IC50 is above 100 nM at human MMP14; 50 to 100 nM at human ADAMTS-5 [5]; above 100 nM at human MMP13 [6]; above 100 nM on human ADAMTS4 [3] (setting [7]); above 100 nM at rnADAMTS-5 (1-564-6H); above 100 nM at human MMP13 [4]. The IC50 was 0.001 to 25 nM on human ADAMTS6, above 100 nM at human TACE and 50 to 100 nM at human ADAMTS-5 [2].

One may read the IC50 as the concentration at which inhibition is half-maximal.
